The compounds below were run on human platelets (assay: ADP-stimulated platelet aggregation assay (inhibition of aggregation of gel-filtered human platelets)). Conditions: fibrinogen 100 μg/ml, Ca2+ 1 mM, 10 uM ADP, 37° C., read-out: IC50 (dose inhibiting aggregation by 50% relative to a control lacking the compound).
Format: cell-based
Experimental: The ADP-stimulated platelet aggregation assay was used to determine IC50 inhibition associated with compounds of the invention.
Human platelets were isolated from fresh blood, collected into acid citrate/dextrose by differential centrifugation followed by gel filtration on Sepharose 2B in divalent ion-free Tyrode's buffer (pH 7.4) containing 2% bovine serum albumin. Platelet aggregation was measured at 37° C. in a a Chronolog aggregometer. The reaction mixture contained gel-filtered human platelets (2×10^8 […]), fibrinogen (100 μg/ml), Ca^2+ (1 mM), and the compound to be tested. Aggregation was initiated by adding 10 uM ADP 1 minute after the other components had been added. The reaction was allowed to proceed for at least 2 minutes. The extent of inhibition of aggregation was expressed as the percentage of the rate of aggregation observed in the absence of inhibitor. The IC50 is the dose of a particular compound inhibiting aggregation by 50% relative to a control lacking the compound.

Row | SMILES | IC50 [nM]
1 | CCCCS(=O)(=O)N[C@@H](Cc1ccc2oc(CCCC3CCNCC3)cc2c1)C(=O)O [2(S)-(Butylsulfonylamino)-3-{5-[2'-3-(piperidin-4-ylpropyl)benzofuranyl]}propionic acid] | 200
2 | O=C(N[C@@H](CNC(=O)c1ccc2cc(CCC3CCNCC3)sc2c1)C(=O)O)OCc1ccccc1 [2-[2-(Piperidin-4-yl)ethyl]benzothiophene-6-N-[3-(2(S)-N-carbobenzyloxyaminopropionic acid)]carboxamide] | 67
3 | CCCCS(=O)(=O)N[C@@H](CNC(=O)c1ccc2cc(CCC3CCNCC3)sc2c1)C(=O)O [2-[2-(Piperidin-4-yl)ethyl]benzothiophene-6-N-[3-(2(S)-butylsulfonylaminopropionic acid)]carboxamide] | 36

More lines, in order of falling IC50, values ahead:

Row | IC50 [nM] | SMILES
4 | 6600 | CCCCS(=O)(=O)N[C@@H](Cc1ccc2oc(C(=O)NCC3CCNCC3)cc2c1)C(=O)O [2(S)-(Butylsulfonylamino)-3-{5-[2'-(4-piperidinylmethyl)aminocarbonyl]benzofuranyl}propionic acid]
5 | 22 | CCCCS(=O)(=O)N[C@@H](CNC(=O)c1ccc2[nH]c(CCC3CCNCC3)nc2c1)C(=O)O [2-[2-(4-Piperidinyl)ethyl]benzimidazole-5-carbonyl-[2(S)-butylsulfonylamino]-β-alanine]
6 | 12 | O=C(NC[C@H](NS(=O)(=O)c1ccccc1)C(=O)O)c1cc2cc(OCCC3CCNCC3)ccc2[nH]1 [5-[2-(4-Piperidinylethyl)oxy]-2-indolecarbonyl-2(S)-phenylsulfonyl0amino-β-alanine]

From US5559127A, “Fibrinogen receptor antagonists” (Merck & Co., Inc., priority 1995, dated 1996)
